Test system: human adipose tissue derived mesenchymal stem cells (hAT-MSCs)
Test: Adipocyte differentiation promoting effect: adiponectin expression (ELISA) in differentiating mesenchymal stem cells
Format: cell-based
Parameters: Adiponectin (pg/ml, Avg ± S.D.): unit of the concentration uncertain
Conditions: for Adiponectin (pg/ml, Avg ± S.D.): medium collected on 14th day, ELISA; for expression level of adiponectin (in words): IDX differentiation medium + material, 14th day, summary of Table 1
Protocol: In order to examine the adipocyte differentiation promoting effect of the compounds prepared in the Example, the following test was carried out.
Adiponectin is a typical protein hormone secreted from adipocytes. It has been reported that as adipocytes are differentiated, the expression of adiponectin is increased. Therefore, the adipocyte differentiation promoting effect was confirmed by measuring the amount of adiponectin expressed in the cell culture medium when treated with the novel compound of the present invention, which is an indicator of adipocyte differentiation promoting.
The adipocyte differentiation was performed by culturing human adipose tissue derived mesenchymal stem cells (hAT-MSCs) from Lonza Inc. (Walkersville, Md., USA) according to Lonza's guidelines. The adipocyte differentiation was carried out using the method recommended by Lonza Inc., except that the adipocyte differentiation of adipose-derived mesenchymal stem cells is induced by using troglitazone (TRO) instead of indomethacin. Specifically, the mesenchymal stem cells were differentiated into adipocytes by adding the medium for adipocyte differentiation (hereinafter referred to as IDX), which was prepared by mixing […] of insulin, […] of Dexamethasone (DEXA), 0.5 mM of isobutylmethylxanthine (IBMX) and […] of TRO, to the culture medium of mesenchymal stem cells, and then culturing it.
In order to determine the expression level of adiponectin, after the medium for adipocyte differentiation was collected on the 14th day of differentiation, the amount of adiponectin was quantified using the Adiponectin ELISA Kit (R & D systems, Cat. No. DY1065) (each data value was corrected by the control group). The specific measurement method using Adiponectin ELISA Kit was as follows.
First, the capture antibody was reacted in a 96-well plate, washed with washing buffer solution, and then the material shown in Table 1 below was added and reacted at room temperature for 2 hours. Thereafter, while washing three times every time when going through each step, the detection antibody, the HRP enzyme, the substrate solution, and the stop solution were added in order and reacted for the time indicated in the protocol. After the final reaction, the absorbance was measured at a wavelength of 450 nm using a spectrophotometer.

[1] = IDX differentiation medium + material at 60 (unit uncertain)

With `COc1ccc(Cl)cc1C(=O)NCCc1ccc(S(=O)(=O)NC(=O)NC2CCCCC2)cc1` [Glibenclamide] as the compound, how does the “Adiponectin (pg/ml, Avg ± S.D.)” value (IDX differentiation medium + material (concentration not given)) read?
Its value is 1920 ± 100 pg/mL.

What does the source list for `O=c1cc(CO)occ1O` [Kojic acid]?
Adiponectin (pg/ml, Avg ± S.D.) (IDX differentiation medium + material at 400 (unit uncertain)): 303 ± 98 pg/mL; expression level of adiponectin (in words): not increased

For `O=C(/C=C/c1ccc2c(c1)OCO2)OCc1cc(=O)c(O)co1` [Seletinoid G], which “Adiponectin (pg/ml, Avg ± S.D.)” value [1] is on record?
The value was 1505 ± 109 pg/mL.

Which results are given for `CC1=CCCC(C)(C)C1/C=C/C(=O)OCc1cc(=O)c(O)co1` (stereo not drawn) [compound of example (Formula 1), 3-(2,6,6-trimethyl-cyclohex-2-enyl)-propenoic acid 5-hydroxy-4-oxo-4H-pyran-2-ylmethyl ester]?
Adiponectin (pg/ml, Avg ± S.D.) [1]: 1730 ± 120 pg/mL; expression level of adiponectin (in words): increases almost similarly to that with Glibenclamide

Reference: patent US10208009B2, “Hydroxyl pyranone compound, method for producing same, and cosmetics composition comprising compound” (AMOREPACIFIC CORPORATION, priority 2015, dated 2019)
